Laboratory results published in the kinase profiling compilation of Christmann-Franck et al. (2016).

Tests used:
Assay in all cases: KINOMEscan competition binding
Conditions in all cases: compound 10.0 µM
MARK2 (human) = MARK2 (human) (UniProt Q7KZI7)
GAK (human) = GAK (human) (UniProt O14976)
TESK1 (human) = TESK1 (human) (UniProt Q15569)
RAF1 (human) = RAF1 (human) (UniProt P04049)
GSK3A (human) = GSK3A (human) (UniProt P49840)
MAPK11 (human) = MAPK11 (human) (UniProt Q15759)
NTRK1 (human) = NTRK1 (human) (UniProt P04629)
RIOK1 (human) = RIOK1 (human) (UniProt Q9BRS2)
[1] = tested on: FLT3 (human), P36888 [D835Y]
IKBKE (human) = IKBKE (human) (UniProt Q14164)
PRKACA (human) = PRKACA (human) (UniProt P17612)
TNK1 (human) = TNK1 (human) (UniProt Q13470)
TNK1 (human), sequence (Q13470 whole entry, looked up): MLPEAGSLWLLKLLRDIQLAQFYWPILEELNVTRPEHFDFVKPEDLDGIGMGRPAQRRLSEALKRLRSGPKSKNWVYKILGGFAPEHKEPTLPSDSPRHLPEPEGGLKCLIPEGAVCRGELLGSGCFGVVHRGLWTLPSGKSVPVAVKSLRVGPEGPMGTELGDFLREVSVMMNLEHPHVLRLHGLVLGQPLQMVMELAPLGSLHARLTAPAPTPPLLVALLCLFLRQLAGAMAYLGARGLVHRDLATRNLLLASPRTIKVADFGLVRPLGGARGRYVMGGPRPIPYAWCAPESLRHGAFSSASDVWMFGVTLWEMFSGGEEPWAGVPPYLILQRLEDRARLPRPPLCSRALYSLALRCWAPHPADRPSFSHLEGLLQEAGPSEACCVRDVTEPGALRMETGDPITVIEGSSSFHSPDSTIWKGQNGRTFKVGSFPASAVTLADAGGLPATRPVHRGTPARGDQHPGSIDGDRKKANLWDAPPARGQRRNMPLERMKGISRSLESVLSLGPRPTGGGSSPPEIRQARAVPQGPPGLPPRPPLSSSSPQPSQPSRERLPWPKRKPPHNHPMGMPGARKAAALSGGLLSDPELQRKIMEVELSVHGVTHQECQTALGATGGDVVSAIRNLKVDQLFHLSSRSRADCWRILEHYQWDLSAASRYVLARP

NEK6 (human) = NEK6 (human) (UniProt Q9HC98)
CDC42BPB (human) = CDC42BPB (human) (UniProt Q9Y5S2)
FGR (human) = FGR (human) (UniProt P09769)
STK10 (human) = STK10 (human) (UniProt O94804)
CSNK1E (human) = CSNK1E (human) (UniProt P49674)
VRK2 (human) = VRK2 (human) (UniProt Q86Y07)
[2] = target: TYK2 JH1 catalytic (human) (UniProt P29597)
CDKL3 (human) = CDKL3 (human) (UniProt Q8IVW4)
MAPK12 (human) = MAPK12 (human) (UniProt P53778)
KIT (human) = KIT (human) (UniProt P10721)
CDK16 (human) = CDK16 (human) (UniProt Q00536)
PRKCE (human) = PRKCE (human) (UniProt Q02156)
RIPK1 (human) = RIPK1 (human) (UniProt Q13546)
RIPK1 (human), sequence (Q13546 whole entry, looked up): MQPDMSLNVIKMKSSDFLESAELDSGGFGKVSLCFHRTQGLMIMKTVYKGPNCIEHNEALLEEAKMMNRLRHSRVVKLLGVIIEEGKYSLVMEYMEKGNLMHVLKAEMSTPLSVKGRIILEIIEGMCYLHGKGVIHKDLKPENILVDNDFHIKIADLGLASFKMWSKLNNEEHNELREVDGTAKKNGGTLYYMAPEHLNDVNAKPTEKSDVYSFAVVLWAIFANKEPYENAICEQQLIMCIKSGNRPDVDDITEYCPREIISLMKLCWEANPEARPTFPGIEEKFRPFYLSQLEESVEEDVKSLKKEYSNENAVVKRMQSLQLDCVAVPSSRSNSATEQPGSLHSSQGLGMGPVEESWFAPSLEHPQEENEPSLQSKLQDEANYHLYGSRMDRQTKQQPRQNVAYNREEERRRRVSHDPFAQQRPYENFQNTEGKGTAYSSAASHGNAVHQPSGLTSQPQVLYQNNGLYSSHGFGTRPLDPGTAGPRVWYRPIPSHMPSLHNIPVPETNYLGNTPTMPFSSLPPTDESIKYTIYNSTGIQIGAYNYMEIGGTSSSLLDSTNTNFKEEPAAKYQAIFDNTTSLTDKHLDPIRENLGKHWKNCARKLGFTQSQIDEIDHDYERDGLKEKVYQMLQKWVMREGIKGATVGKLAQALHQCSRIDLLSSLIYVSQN

TXK (human) = TXK (human) (UniProt P42681)
PDGFRA (human) = PDGFRA (human) (UniProt P16234)
RPS6KA2 KD2 (human) = RPS6KA2 KD2 (human) (UniProt Q15349)
SRMS (human) = SRMS (human) (UniProt Q9H3Y6)
ACVR2A (human) = ACVR2A (human) (UniProt P27037)
MAP3K11 (human) = MAP3K11 (human) (UniProt Q16584)
EPHB1 (human) = EPHB1 (human) (UniProt P54762)
BRSK2 (human) = BRSK2 (human) (UniProt Q8IWQ3)
PLK1 (human) = PLK1 (human) (UniProt P53350)
NEK4 (human) = NEK4 (human) (UniProt P51957)
NEK4 (human), sequence (P51957 whole entry, looked up): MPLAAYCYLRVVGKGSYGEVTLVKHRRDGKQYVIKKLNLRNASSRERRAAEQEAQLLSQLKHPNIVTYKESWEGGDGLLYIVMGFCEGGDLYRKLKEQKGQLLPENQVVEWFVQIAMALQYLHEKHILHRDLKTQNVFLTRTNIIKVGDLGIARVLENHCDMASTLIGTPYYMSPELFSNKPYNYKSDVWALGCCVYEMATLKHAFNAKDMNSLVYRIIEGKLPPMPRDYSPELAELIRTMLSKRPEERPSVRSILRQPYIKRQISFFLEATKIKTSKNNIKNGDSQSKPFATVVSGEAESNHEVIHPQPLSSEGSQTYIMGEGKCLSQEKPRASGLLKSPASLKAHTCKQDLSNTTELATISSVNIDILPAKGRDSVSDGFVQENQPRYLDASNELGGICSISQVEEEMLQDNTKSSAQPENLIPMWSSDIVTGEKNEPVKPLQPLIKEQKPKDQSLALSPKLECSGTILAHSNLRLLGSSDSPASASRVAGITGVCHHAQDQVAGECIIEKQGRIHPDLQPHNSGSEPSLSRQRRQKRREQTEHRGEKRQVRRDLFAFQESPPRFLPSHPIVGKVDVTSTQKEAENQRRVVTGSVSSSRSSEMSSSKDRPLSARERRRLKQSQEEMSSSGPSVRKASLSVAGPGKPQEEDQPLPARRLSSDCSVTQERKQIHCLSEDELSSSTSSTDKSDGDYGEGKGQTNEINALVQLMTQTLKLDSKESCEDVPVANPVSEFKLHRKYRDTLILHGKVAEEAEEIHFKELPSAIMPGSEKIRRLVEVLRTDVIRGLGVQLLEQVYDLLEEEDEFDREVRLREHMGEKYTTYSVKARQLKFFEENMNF

YSK4 (human) = YSK4 (human) (UniProt Q56UN5)
MST4 (human) = MST4 (human) (UniProt Q9P289)
EPHA3 (human) = EPHA3 (human) (UniProt P29320)
EPHA3 (human), sequence (P29320 whole entry, looked up): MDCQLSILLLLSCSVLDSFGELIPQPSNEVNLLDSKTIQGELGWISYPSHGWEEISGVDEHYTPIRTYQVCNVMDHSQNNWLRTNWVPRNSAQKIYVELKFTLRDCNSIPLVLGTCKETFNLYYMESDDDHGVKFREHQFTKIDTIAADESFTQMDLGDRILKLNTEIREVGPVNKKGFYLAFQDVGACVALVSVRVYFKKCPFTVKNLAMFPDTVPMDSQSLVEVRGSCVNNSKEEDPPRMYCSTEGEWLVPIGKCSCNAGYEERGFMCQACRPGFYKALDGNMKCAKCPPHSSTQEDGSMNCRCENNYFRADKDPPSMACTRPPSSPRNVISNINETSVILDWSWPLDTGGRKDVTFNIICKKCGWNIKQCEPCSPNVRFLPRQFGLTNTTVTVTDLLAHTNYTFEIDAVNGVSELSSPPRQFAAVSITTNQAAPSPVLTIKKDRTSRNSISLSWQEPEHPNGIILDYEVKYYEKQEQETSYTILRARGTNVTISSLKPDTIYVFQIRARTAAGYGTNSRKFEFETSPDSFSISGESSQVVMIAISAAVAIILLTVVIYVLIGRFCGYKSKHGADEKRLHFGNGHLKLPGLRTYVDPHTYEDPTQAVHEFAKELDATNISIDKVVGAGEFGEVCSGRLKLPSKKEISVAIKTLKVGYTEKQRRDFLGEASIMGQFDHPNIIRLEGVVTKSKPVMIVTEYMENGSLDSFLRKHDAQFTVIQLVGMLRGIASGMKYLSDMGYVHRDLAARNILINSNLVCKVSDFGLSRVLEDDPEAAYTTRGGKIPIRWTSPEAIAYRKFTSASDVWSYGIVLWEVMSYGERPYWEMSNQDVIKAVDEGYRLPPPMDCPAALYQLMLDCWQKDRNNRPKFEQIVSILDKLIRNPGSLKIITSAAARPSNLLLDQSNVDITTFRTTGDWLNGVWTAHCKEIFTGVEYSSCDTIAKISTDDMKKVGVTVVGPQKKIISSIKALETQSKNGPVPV

MAP2K3 (human) = MAP2K3 (human) (UniProt P46734)
MAP2K3 (human), sequence (P46734 whole entry, looked up): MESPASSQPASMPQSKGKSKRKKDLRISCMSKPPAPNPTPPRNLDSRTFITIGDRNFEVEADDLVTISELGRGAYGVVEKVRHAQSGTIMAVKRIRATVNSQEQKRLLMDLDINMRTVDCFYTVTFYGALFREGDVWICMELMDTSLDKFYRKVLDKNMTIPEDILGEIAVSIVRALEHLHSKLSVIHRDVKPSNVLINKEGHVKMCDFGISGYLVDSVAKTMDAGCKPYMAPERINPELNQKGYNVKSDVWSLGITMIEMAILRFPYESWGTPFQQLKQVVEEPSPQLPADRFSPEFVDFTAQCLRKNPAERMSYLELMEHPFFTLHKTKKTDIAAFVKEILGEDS

HIPK1 (human) = HIPK1 (human) (UniProt Q86Z02)

GSK3A (human), sequence (P49840 whole entry, looked up): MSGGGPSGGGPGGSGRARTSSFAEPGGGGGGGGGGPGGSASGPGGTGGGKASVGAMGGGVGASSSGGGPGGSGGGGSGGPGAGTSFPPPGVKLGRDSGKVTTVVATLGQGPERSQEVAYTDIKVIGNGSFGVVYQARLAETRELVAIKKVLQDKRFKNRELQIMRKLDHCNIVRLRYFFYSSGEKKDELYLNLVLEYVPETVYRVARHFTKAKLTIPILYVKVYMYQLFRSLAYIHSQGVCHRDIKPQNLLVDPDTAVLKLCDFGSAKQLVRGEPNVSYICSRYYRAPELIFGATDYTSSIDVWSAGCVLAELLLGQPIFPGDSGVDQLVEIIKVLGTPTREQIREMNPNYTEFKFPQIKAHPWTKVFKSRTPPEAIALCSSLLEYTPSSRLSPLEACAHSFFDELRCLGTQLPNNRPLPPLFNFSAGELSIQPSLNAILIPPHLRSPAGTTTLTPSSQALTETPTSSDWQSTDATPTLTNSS
MAPK11 (human), sequence (Q15759 whole entry, looked up): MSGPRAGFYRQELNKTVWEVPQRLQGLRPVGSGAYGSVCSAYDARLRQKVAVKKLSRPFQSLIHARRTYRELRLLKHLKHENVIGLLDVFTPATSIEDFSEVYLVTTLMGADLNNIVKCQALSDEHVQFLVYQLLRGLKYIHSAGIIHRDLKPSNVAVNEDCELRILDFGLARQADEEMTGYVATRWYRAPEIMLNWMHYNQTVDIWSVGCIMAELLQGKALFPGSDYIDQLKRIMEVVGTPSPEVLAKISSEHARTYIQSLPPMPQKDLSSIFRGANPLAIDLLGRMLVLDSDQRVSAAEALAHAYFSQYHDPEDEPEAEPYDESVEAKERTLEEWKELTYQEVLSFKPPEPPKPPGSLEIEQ
RAF1 (human), sequence (P04049 whole entry, looked up): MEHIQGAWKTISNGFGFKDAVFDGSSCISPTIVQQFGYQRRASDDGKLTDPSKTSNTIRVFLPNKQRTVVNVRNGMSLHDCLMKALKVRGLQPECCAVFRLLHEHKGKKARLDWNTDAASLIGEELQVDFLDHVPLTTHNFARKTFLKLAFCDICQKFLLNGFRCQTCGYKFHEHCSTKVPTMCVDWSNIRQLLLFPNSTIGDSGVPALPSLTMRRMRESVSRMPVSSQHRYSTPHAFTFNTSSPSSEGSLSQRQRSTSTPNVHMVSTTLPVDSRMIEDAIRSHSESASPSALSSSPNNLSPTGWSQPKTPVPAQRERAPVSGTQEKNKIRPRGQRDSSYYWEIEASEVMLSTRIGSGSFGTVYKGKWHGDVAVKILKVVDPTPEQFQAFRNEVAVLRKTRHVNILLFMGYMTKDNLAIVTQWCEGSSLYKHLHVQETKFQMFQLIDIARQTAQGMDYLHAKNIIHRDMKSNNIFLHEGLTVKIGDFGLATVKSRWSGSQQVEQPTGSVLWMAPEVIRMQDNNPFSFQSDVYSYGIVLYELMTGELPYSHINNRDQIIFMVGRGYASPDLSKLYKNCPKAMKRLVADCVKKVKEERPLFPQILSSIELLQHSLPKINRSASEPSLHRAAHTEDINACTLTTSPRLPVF

SMILES	kinase still bound, per cent of control (MARK2 (human)) [%]	kinase still bound, per cent of control (GAK (human)) [%]	kinase still bound, per cent of control (TESK1 (human)) [%]	kinase still bound, per cent of control (RAF1 (human)) [%]	kinase still bound, per cent of control (GSK3A (human)) [%]	kinase still bound, per cent of control (MAPK11 (human)) [%]	kinase still bound, per cent of control (NTRK1 (human)) [%]	kinase still bound, per cent of control (RIOK1 (human)) [%]	kinase still bound, per cent of control (IKBKE (human)) [%]	kinase still bound, per cent of control (PRKACA (human)) [%]	kinase still bound, per cent of control (TNK1 (human)) [%]	kinase still bound, per cent of control (NEK6 (human)) [%]	kinase still bound, per cent of control (CDC42BPB (human)) [%]	kinase still bound, per cent of control (FGR (human)) [%]	kinase still bound, per cent of control (STK10 (human)) [%]	kinase still bound, per cent of control (CSNK1E (human)) [%]	kinase still bound, per cent of control (VRK2 (human)) [%]	kinase still bound, per cent of control [2] [%]	kinase still bound, per cent of control (CDKL3 (human)) [%]	kinase still bound, per cent of control (MAPK12 (human)) [%]	further results
N#Cc1cc(-c2ccnc(Nc3ccc(-n4cnc(-c5cccnc5)n4)cc3)n2)cc(N2CCOCC2)c1	73	22	54	91	3.5	79	53	3.8	37	89	25	76	61	54	39	95	100	0	45	80	kinase still bound, per cent of control [1]: 14%; kinase still bound, per cent of control (KIT (human)): 0.65%; kinase still bound, per cent of control (CDK16 (human)): 6.8%; kinase still bound, per cent of control (PRKCE (human)): 100%; kinase still bound, per cent of control (RIPK1 (human)): 7.8%; kinase still bound, per cent of control (TXK (human)): 60%; kinase still bound, per cent of control (PDGFRA (human)): 1.2%; kinase still bound, per cent of control (RPS6KA2 KD2 (human)): 75%; kinase still bound, per cent of control (SRMS (human)): 62%; kinase still bound, per cent of control (ACVR2A (human)): 16%; kinase still bound, per cent of control (MAP3K11 (human)): 46%; kinase still bound, per cent of control (EPHB1 (human)): 90%; kinase still bound, per cent of control (BRSK2 (human)): 98%; kinase still bound, per cent of control (PLK1 (human)): 99%; kinase still bound, per cent of control (NEK4 (human)): 100%; kinase still bound, per cent of control (YSK4 (human)): 0.25%; kinase still bound, per cent of control (MST4 (human)): 62%; kinase still bound, per cent of control (EPHA3 (human)): 58%; kinase still bound, per cent of control (MAP2K3 (human)): 18%; kinase still bound, per cent of control (HIPK1 (human)): 2.2%
COc1cc2ncnc(Nc3cccc(Cl)c3)c2cc1OC	74	0	100	84	84	57	88	65	55	94	26	100	98	32	1.5	32	35	52	76	100	kinase still bound, per cent of control [1]: 11%; kinase still bound, per cent of control (CDK16 (human)): 90%; kinase still bound, per cent of control (PRKCE (human)): 75%; kinase still bound, per cent of control (RIPK1 (human)): 100%; kinase still bound, per cent of control (TXK (human)): 63%; kinase still bound, per cent of control (PDGFRA (human)): 29%; kinase still bound, per cent of control (RPS6KA2 KD2 (human)): 90%; kinase still bound, per cent of control (SRMS (human)): 60%; kinase still bound, per cent of control (ACVR2A (human)): 92%; kinase still bound, per cent of control (MAP3K11 (human)): 100%; kinase still bound, per cent of control (EPHB1 (human)): 67%; kinase still bound, per cent of control (BRSK2 (human)): 45%; kinase still bound, per cent of control (PLK1 (human)): 92%; kinase still bound, per cent of control (NEK4 (human)): 76%; kinase still bound, per cent of control (YSK4 (human)): 3.2%; kinase still bound, per cent of control (MST4 (human)): 84%; kinase still bound, per cent of control (EPHA3 (human)): 28%; kinase still bound, per cent of control (MAP2K3 (human)): 57%; kinase still bound, per cent of control (HIPK1 (human)): 48%
CCc1nc(-c2cccc(C)c2)c(-c2ccnc(NC(=O)c3ccccc3)c2)s1	100	4.4	81	34	100	0	100	100	100	85	88	100	63	52	59	0.05	63	100	81	100	kinase still bound, per cent of control (KIT (human)): 45%; kinase still bound, per cent of control (CDK16 (human)): 100%; kinase still bound, per cent of control (PRKCE (human)): 87%; kinase still bound, per cent of control (RIPK1 (human)): 95%; kinase still bound, per cent of control (TXK (human)): 75%; kinase still bound, per cent of control (PDGFRA (human)): 84%; kinase still bound, per cent of control (RPS6KA2 KD2 (human)): 86%; kinase still bound, per cent of control (SRMS (human)): 83%; kinase still bound, per cent of control (ACVR2A (human)): 70%; kinase still bound, per cent of control (MAP3K11 (human)): 70%; kinase still bound, per cent of control (EPHB1 (human)): 83%; kinase still bound, per cent of control (BRSK2 (human)): 95%; kinase still bound, per cent of control (PLK1 (human)): 100%; kinase still bound, per cent of control (NEK4 (human)): 100%; kinase still bound, per cent of control (YSK4 (human)): 64%; kinase still bound, per cent of control (MST4 (human)): 100%; kinase still bound, per cent of control (EPHA3 (human)): 69%; kinase still bound, per cent of control (MAP2K3 (human)): 96%; kinase still bound, per cent of control (HIPK1 (human)): 94%
